In patent publication EP2487157A1, “Enantioselective synthesis method of 4-aminoalcoholquinoline derivatives and the use” (Université de Picardie Jules Verne, priority 2011, dated 2012):
Values after ≈ are worked out from the molar mass of the structure shown. Like-named read-outs stand apart in the source and are kept apart here.

How the values were obtained:
[1] = system: Plasmodium falciparum sensitive (3D7); test: Antimalarial test, tritiated hypoxanthine incorporation, sensitive clone 3D7; assay type: cell-based; details: read-out: 50% inhibitory concentration followed by uncertainty about the value expressed in percentage
Description: (§1) Screenings of the compound according to the present invention (1f, 1h, 1i) and their isomers (1a, 1c, 1d)on strains of Plasmodium falciparum sensitive (3D7) and chloroquine resistant (W2) were realized.
(§2) The Clones of W2 and 3D7 were grown. […] Melfloquine (MQ) at the same concentrations and chloroquine (CQ) at the concentrations adapted to each clone were used as the Controls. 8 negative controls were distributed on each plate.
(§3) Then, the molecules to be tested were diluted extemporaneously in the above preparation of the plates. The growth medium was deposited after drying plates. The study was initiated when the growth medium was at the ring stage and then stopped after 1 parasitic cycle (45h).
(§4) The activity was calculated by using the Pk-Fit software on all the experimental points obtained for each molecule (except the highest concentration). The results shown in table 5 are expressed in nM and correspond to calculate a 50% inhibitory concentration followed by un certainty about the value expressed in percentage. Table 5. The biological effect of the compounds on Plasmodium falciparum

E. coli DSM 1103 = test: Antibacterial test, MIC by CLSI broth dilution; assay type: cell-based; details: 18 to 24 h at 37°C, Mueller-Hinton
Description: (§5) The minimum inhibitory concentrations (MICs) were determined according to the recommendations of the Clinical and Laboratory Standards Institute (CLSI)^[27]. […] After incubation for 18 to 24 h (48 h for Enterococcus faecalis) at 37°C, the MIC was determined as the product concentration of the first well with no visual signs of bacterial growth (no disorder in the well). […] Table6. The antibacterial effects of the compounds

S. aureus CIP 103429 = test: Antibacterial test, MIC by CLSI broth dilution; assay type: cell-based; details: 18 to 24 h at 37°C, Mueller-Hinton
Description: as §5

P. aeruginosa DSM 1117 = test: Antibacterial test, MIC by CLSI broth dilution; assay type: cell-based; details: 18 to 24 h at 37°C, Mueller-Hinton
Description: as §5

SAAM 95 = test: Antibacterial test, MIC by CLSI broth dilution; assay type: cell-based, Staphylococcus aureus; details: SAAM 95, clinical strain resistant to methicillin; 18 to 24 h at 37°C
Description: as §5

SAAM 51 = test: Antibacterial test, MIC by CLSI broth dilution; assay type: cell-based, Staphylococcus aureus; details: SAAM 51, clinical strain resistant to methicillin; 18 to 24 h at 37°C
Description: as §5

SAAM 98 = test: Antibacterial test, MIC by CLSI broth dilution; assay type: cell-based, Staphylococcus aureus; details: SAAM 98, clinical strain resistant to methicillin; 18 to 24 h at 37°C
Description: as §5

SAAM 12 = test: Antibacterial test, MIC by CLSI broth dilution; assay type: cell-based, Staphylococcus aureus; details: SAAM 12, clinical strain resistant to methicillin; 18 to 24 h at 37°C
Description: as §5

SAAM 64 = test: Antibacterial test, MIC by CLSI broth dilution; assay type: cell-based, Staphylococcus aureus; details: SAAM 64, clinical strain resistant to methicillin; 18 to 24 h at 37°C
Description: as §5

SAAM 69 = test: Antibacterial test, MIC by CLSI broth dilution; assay type: cell-based, Staphylococcus aureus; details: SAAM 69, clinical strain resistant to methicillin; 18 to 24 h at 37°C
Description: as §5

SAAM 86 = test: Antibacterial test, MIC by CLSI broth dilution; assay type: cell-based, Staphylococcus aureus; details: SAAM 86, clinical strain resistant to methicillin; 18 to 24 h at 37°C
Description: as §5

SAAM 27 = test: Antibacterial test, MIC by CLSI broth dilution; assay type: cell-based, Staphylococcus aureus; details: SAAM 27, clinical strain resistant to methicillin; 18 to 24 h at 37°C
Description: as §5

E. faecalis CIP 103214 = test: Antibacterial test, MIC by CLSI broth dilution; assay type: cell-based, Enterococcus faecalis; details: 48 h at 37°C, Mueller-Hinton
Description: as §5

[2] = system: Plasmodium falciparum chloroquine resistant (W2); test: Antimalarial test, tritiated hypoxanthine incorporation, chloroquine resistant clone W2; assay type: cell-based; details: read-out: 50% inhibitory concentration followed by uncertainty about the value expressed in percentage
Description: as §1, §2, §3, §4

[3] = system: Sierra Leone and Indochina P. falciparum strains; details: ratio of IC50 values against Sierra Leone and Indochina P. falciparum strains; cited from earlier work
CNS adenosine receptors = details: result in words, from literature; cited from earlier work
[4] = 3D7 clone, sensitive, 1 parasitic cycle (45h), bracket = uncertainty in %
[5] = W2 clone, chloroquine resistant, 1 parasitic cycle (45h), bracket = uncertainty in %

Row | Compound | IC50 [1, 4] | minimum inhibitory concentrations (MICs) (E. coli DSM 1103) | minimum inhibitory concentrations (MICs) (S. aureus CIP 103429) | minimum inhibitory concentrations (MICs) (P. aeruginosa DSM 1117) | minimum inhibitory concentrations (MICs) (SAAM 95) | minimum inhibitory concentrations (MICs) (SAAM 51) | minimum inhibitory concentrations (MICs) (SAAM 98) | minimum inhibitory concentrations (MICs) (SAAM 12) | minimum inhibitory concentrations (MICs) (SAAM 64) | minimum inhibitory concentrations (MICs) (SAAM 69) | minimum inhibitory concentrations (MICs) (SAAM 86) | minimum inhibitory concentrations (MICs) (SAAM 27) | minimum inhibitory concentrations (MICs) (E. faecalis CIP 103214) | IC50 [2, 5] | more potent than the (-)-enantiomer by a factor [3] | binding to CNS adenosine receptors (CNS adenosine receptors) | IC50 ([1]; 3D7, 45 h) | IC50 ([2]; W2, 45 h)
1 | O[C@H](CNCc1ccccc1)c1cc(C(F)(F)F)nc2c(C(F)(F)F)cccc12 [Compound 1f, (S)-2-(benzylamino)-1-(2,8-bis(trifluoromethyl)quinolin-4-yl)ethanol] | 35.1 nM | >128 µg/mL | 4 to 8 µg/mL | >128 µg/mL | 4 µg/mL (≈ 9.65 µM) | 4 µg/mL (≈ 9.65 µM) | 8 µg/mL (≈ 19.3 µM) | 4 µg/mL (≈ 9.65 µM) | >128 µg/mL | 8 µg/mL (≈ 19.3 µM) | 8 µg/mL (≈ 19.3 µM) | 4 µg/mL (≈ 9.65 µM) | 8 µg/mL (≈ 19.3 µM) | 19.1 nM |  |  |  | 
2 | O[C@H](c1cc(C(F)(F)F)nc2c(C(F)(F)F)cccc12)[C@@H]1CCCCN1 (relative stereo) [MQ, (±)-(R*,S*)-α-2-piperidinyl-2,8-bis(trifluoromethyl)-4-quinolinemethanol, reference compound] | 52.2 nM | 64 µg/mL (≈ 169 µM) | 16 to 32 µg/mL | >128 µg/mL | 16 µg/mL (≈ 42.3 µM) | 16 µg/mL (≈ 42.3 µM) | 32 µg/mL (≈ 84.6 µM) | 16 µg/mL (≈ 42.3 µM) | 32 µg/mL (≈ 84.6 µM) | 16 µg/mL (≈ 42.3 µM) | 16 µg/mL (≈ 42.3 µM) | 16 µg/mL (≈ 42.3 µM) | 16 to 32 µg/mL | 26.5 nM |  |  |  | 
3 | O[C@H](c1cc(C(F)(F)F)nc2c(C(F)(F)F)cccc12)[C@@H]1CCCCN1 (single isomer, unassigned) [(+)-enantiomer of the mefloquine] |  |  |  |  |  |  |  |  |  |  |  |  |  |  | 1.69 | without significant activity |  | 
4 | CCCCCNC[C@@H](O)c1cc(C(F)(F)F)nc2c(C(F)(F)F)cccc12 [Compound 1h, (S)-1-(2,8-bis(trifluoromethyl)quinolin-4-yl)-2-(pentylamino)ethanol] | 8.33 nM | 16 µg/mL (≈ 40.6 µM) | 16 to 32 µg/mL | >128 µg/mL | 8 µg/mL (≈ 20.3 µM) | 8 µg/mL (≈ 20.3 µM) | 16 µg/mL (≈ 40.6 µM) | 8 µg/mL (≈ 20.3 µM) | 16 µg/mL (≈ 40.6 µM) | 8 µg/mL (≈ 20.3 µM) | 16 µg/mL (≈ 40.6 µM) | 8 µg/mL (≈ 20.3 µM) | 16 to 32 µg/mL | 6.98 nM |  |  |  | 
5 | CCN(CC)CCCC(C)Nc1ccnc2cc(Cl)ccc12 (stereo not shown) [CQ, chloroquine, reference compound] |  |  |  |  |  |  |  |  |  |  |  |  |  |  |  |  | 32.5 nM | 572 nM
6 | O[C@@H](c1cc(C(F)(F)F)nc2c(C(F)(F)F)cccc12)[C@H]1CCCCN1 (single isomer, unassigned) [(-)-enantiomer of mefloquine] |  |  |  |  |  |  |  |  |  |  |  |  |  |  |  | binds to CNS adenosine receptors |  | 
7 | O[C@@H](CNCc1ccccc1)c1cc(C(F)(F)F)nc2c(C(F)(F)F)cccc12 [Compound 1a, (R)-2-(benzylamino)-1-(2,8-bis(trifluoromethyl)quinolin-4-yl)ethanol] | 104 nM | >128 µg/mL | >128 µg/mL | >128 µg/mL | 4 µg/mL (≈ 9.65 µM) | 4 µg/mL (≈ 9.65 µM) | >128 µg/mL | 4 µg/mL (≈ 9.65 µM) | >128 µg/mL | 8 µg/mL (≈ 19.3 µM) | 8 µg/mL (≈ 19.3 µM) | 4 µg/mL (≈ 9.65 µM) | >128 µg/mL | 41.1 nM |  |  |  | 
8 | CCCCCNC[C@H](O)c1cc(C(F)(F)F)nc2c(C(F)(F)F)cccc12 [Compound 1c, (R)-1-(2,8-bis(trifluoromethyl)quinolin-4-yl)-2-(pentylamino)ethanol] | 74.7 nM | 32 µg/mL (≈ 81.1 µM) | 16 to 32 µg/mL | >128 µg/mL | 8 µg/mL (≈ 20.3 µM) | 8 µg/mL (≈ 20.3 µM) | 16 µg/mL (≈ 40.6 µM) | 8 µg/mL (≈ 20.3 µM) | 16 µg/mL (≈ 40.6 µM) | 8 µg/mL (≈ 20.3 µM) | 16 µg/mL (≈ 40.6 µM) | 8 µg/mL (≈ 20.3 µM) | 16 to 32 µg/mL | 38.2 nM |  |  |  | 
9 | CCCCCCNC[C@@H](O)c1cc(C(F)(F)F)nc2c(C(F)(F)F)cccc12 [Compound 1i, (S)-1-(2,8-bis(trifluoromethyl)quinolin-4-yl)-2-(hexylamino)ethanol] | 14.5 nM | >128 µg/mL | 4 to 8 µg/mL | >128 µg/mL | 2 µg/mL (≈ 4.9 µM) | 2 µg/mL (≈ 4.9 µM) | 8 µg/mL (≈ 19.6 µM) | 2 µg/mL (≈ 4.9 µM) | 4 µg/mL (≈ 9.79 µM) | 4 µg/mL (≈ 9.79 µM) | 8 µg/mL (≈ 19.6 µM) | 2 µg/mL (≈ 4.9 µM) | 4 to 8 µg/mL | 9.4 nM |  |  |  | 
10 | CCCCCCNC[C@H](O)c1cc(C(F)(F)F)nc2c(C(F)(F)F)cccc12 [Compound 1d, (R)-1-(2,8-bis(trifluoromethyl)quinolin-4-yl)-2-(hexylamino)ethanol] | 205 nM | 16 µg/mL (≈ 39.2 µM) | 4 to 8 µg/mL | >128 µg/mL | 4 µg/mL (≈ 9.79 µM) | 4 µg/mL (≈ 9.79 µM) | 4 µg/mL (≈ 9.79 µM) | 4 µg/mL (≈ 9.79 µM) | 4 µg/mL (≈ 9.79 µM) | 4 µg/mL (≈ 9.79 µM) | 4 µg/mL (≈ 9.79 µM) | 4 µg/mL (≈ 9.79 µM) | 4 to 8 µg/mL | 142 nM |  |  |  | 
